From PubChem BioAssay AID1159565 (GlaxoSmithKline (GSK), 2015)
Active and inactive are the calls of the source. The rule behind the calls is not given here.

Test system: T. cruzi-infected H9C2 cardiomyocytes, high-content imaging
Test: anti-T. cruzi activity in infected cardiomyocytes – imaging, H9C2 host cardiomyocytes, host toxicity (AID 1159565);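 note: infected cells incubated 72 h after plating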
[1] = measured here: H9C2 host cell toxicity
[2] = measured here: amastigotes per cell

Row | SMILES | IC50 | IC50 [1] [µM] | IC50 [2] [µM]
1 | N#Cc1cc(N2CCCC2=O)ccc1Sc1ccccc1CO | 0.4 µM | > 50 | 0.25
2 | O=C(NCC(c1cccs1)N1CCOCC1)c1ccc([N+](=O)[O-])o1 (stereo not drawn) | 16 µM | 5 | 16
3 | N#Cc1cccc(Nc2nccc(N3CCC(NS(=O)(=O)c4cccc(C#N)c4)CC3)n2)c1 | 7.9 µM | 32 | 3.2
4 | Cc1nc2c(-c3ncn[nH]3)cc(NC(=O)Cc3ccccc3)cn2c1C | 1 µM | 6.3 | 0.79
5 | Cc1[nH]nc(-c2nc3ccccc3[nH]2)c1C(=O)NC1CCCNC1 (stereo not drawn) | 0.063 µM | 3.2 | 0.04
6 | Cc1[nH]n2c(=O)c3c(nc2c1-c1ccc(F)cc1)CCCC3 | 2 µM | > 50 | 0.79
7 | COc1ccc(-c2csc(NC(=O)c3ccc([N+](=O)[O-])s3)n2)cc1 | 0.25 µM | 32 | 0.2
8 | Cc1ccc(NC(C)C(=O)Nc2ccc(C#N)cc2)cc1S(=O)(=O)N1CCCCC1 (stereo not drawn) | 7.9 µM | > 50 | 7.9
9 | Cc1ccc(NC(=O)c2ccc(Cl)c(NC(=O)c3ccc([N+](=O)[O-])cc3)c2)cc1 | 0.5 µM | > 50 | 0.2
10 | COc1ccc(-c2cc(C)no2)cc1S(=O)(=O)Nc1ccc(C)c(C)c1 | 7.9 µM | 16 | 5
11 | Cc1nc2c(-c3n[nH]c(-c4ccccc4N)n3)cccn2c1C | 2.5 µM | 5 | 1.6
12 | CCOC(=O)c1noc(N)c1-c1ccccc1 | > 50 µM (inactive) | > 50 | > 50
13 | Cc1nc(N2CC(C)OC(C)C2)sc1C(=O)Nc1ccc2c(c1)OCO2 (stereo not drawn) | 4 µM | > 50 | 2.5
14 | COc1cccc(Nc2cc(C)nc(-c3ccccn3)n2)c1 | 13 µM | 5 | 7.9
15 | COc1cc(NC(=O)Nc2cccc(CNC(=O)OC3CCCCC3)c2)ccc1-c1cnco1 | 25 µM | 16 | 32
16 | Cc1nc2nc(C)c(Cc3ccc(C(C)C)cc3)c(=O)n2[nH]1 | 0.79 µM | > 50 | 0.25
17 | CC(=O)Nc1ccc(-c2csc(NC(=O)c3ccc([N+](=O)[O-])s3)n2)cc1 | 0.13 µM | 5 | 0.1
18 | O=C(Nc1cccc(F)c1)N1CCC(Oc2cccc(-c3cccnc3)c2)CC1 | 0.63 µM | 25 | 0.5
19 | CCOc1ccc2nc(NC(=O)c3ccc([N+](=O)[O-])s3)sc2c1 | 1.3 µM | 10 | 1
20 | CC(C(=O)Nc1ccc(Br)cc1)N1CCN(c2ccc([N+](=O)[O-])cc2)CC1 (stereo not drawn) | 2.5 µM | > 50 | 3.2
21 | N#CN1CC[C@@H](NC(=O)Nc2ccccc2Oc2ccccc2)C1 | 4 µM | 20 | 5
22 | C=CCn1nc([N+](=O)[O-])nc1Oc1ccc(Cl)cc1Cl | 0.25 µM | > 50 | 0.13
23 | NC(=O)c1ccccc1Nc1nc(NC2CCCCC2)nc2[nH]ccc12 | 1 µM | 25 | 1
24 | COc1cccc(C(=O)[C@H]2C[C@@H]2CN(Cc2ccccn2)Cc2ccccn2)c1 | 1.3 µM | 20 | 0.79

Row | SMILES | IC50 | IC50 [1] [µM] | IC50 [2] [µM]
25 | Cc1nc2c(-c3nc(-c4ccc(N)cc4)n[nH]3)cccn2c1C | > 50 µM (inactive) | 10 | > 50
26 | O=C(CN(c1cccc(C(F)(F)F)c1)S(=O)(=O)c1ccc(Cl)cc1)NCc1ccc(F)c(F)c1 | 0.79 µM | > 50 | 0.5
27 | O=C(CN(Cc1ccccn1)Cc1ccccn1)NC1Cc2ccccc2C1 | 13 µM | > 79 | 6.3
28 | COc1cc(-c2nc(N3CCOCC3)sc2-c2ccnc(NC3CCOCC3)n2)ccc1Cl | 0.16 µM | > 50 | 0.1
29 | O=C(NCCc1csc(-c2ccc(F)cc2)n1)c1ccco1 | 1.6 µM | > 50 | 1.3
30 | Cc1c(C(=O)NCCCCn2ccnc2)oc2c(C)cccc12 | 0.5 µM | > 50 | 0.5
31 | CN(C)CCN(C)Cc1ccc(Cl)cc1NS(=O)(=O)c1ccc(Cl)c(Cl)c1 | 2 µM | 5 | 2
32 | CN(C)CCOc1ccc(N2CCN(S(=O)(=O)c3ccc(Cl)cc3)CC2)cc1 | 0.63 µM | > 50 | 0.5
33 | N#Cc1cnc(Nc2cccc(CCN3CCOCC3)c2)nc1Nc1ccccc1C(N)=O | 3.2 µM | 0.013 | 2
34 | CN(Cc1nc2ccccc2s1)C(=O)C=Cc1cc2ccccc2o1 | 0.79 µM | > 50 | 1
35 | Cc1cc(N(C)C)nc2ccc(Cc3cnc(N)nc3N)cc12 | 6.3 µM | > 50 | 3.2
36 | CC(CNS(=O)(=O)c1ccc(OC(F)F)cc1)c1ccc(NC(=O)c2ccncc2)cc1 (stereo not drawn) | 0.1 µM | > 50 | 0.079
37 | CCC(c1ccc(F)cc1)n1cncc1-c1cnn(C)c1 (stereo not drawn) | 0.32 µM | > 50 | 0.32
38 | NCC(Cc1ccccc1)NC(=O)c1cnc(-c2c[nH]c3ncccc23)s1 (stereo not drawn) | > 50 µM (inactive) | 0.63 | 20
39 | OCC1CCCCN1c1cc(-c2ccccn2)nc(Nc2ccccc2)n1 (stereo not drawn) | 4 µM | 0.5 | 2
40 | COc1ccc(S(=O)(=O)Nc2ccc(CN3CCN(C(=O)c4cccc(C#N)c4)CC3)cc2)cc1 | 1 µM | > 50 | 0.79
41 | Cc1cccnc1NC(=O)c1cccc(OCc2c(C)noc2C)c1 | 50 µM | 2.5 | 40
42 | O=C(CN(Cc1ccccn1)Cc1ccccn1)NCc1csc(-c2cccs2)n1 | 6.3 µM | > 50 | 2.5
43 | CCC(=O)Nc1ccc(C(=O)Nc2ccccc2-c2ccccc2)cc1 | 0.5 µM | > 50 | 0.25
44 | COc1cccc(-c2cc(C(F)(F)F)nc(-n3ccc([N+](=O)[O-])n3)n2)c1 | 0.4 µM | > 50 | 0.2
45 | NS(=O)(=O)c1ccc(CNC(=O)c2ccc([N+](=O)[O-])s2)cc1 | 5 µM | 20 | 0.79
46 | O=C(N1CCc2ccccc2CC1)C1(C(=O)N2CCC(n3c(=O)[nH]c4ncccc43)CC2)CC1 | 0.79 µM | > 50 | 0.63
47 | O=C(Nc1ccccc1C(=O)Nc1ccccn1)c1ccco1 | > 50 µM (inactive) | > 50 | > 50
48 | Cc1ccnc(NS(=O)(=O)c2ccc(NC(=O)c3ccc([N+](=O)[O-])s3)cc2)n1 | 10 µM | 5 | 6.3

Row | SMILES | IC50 | IC50 [1] [µM] | IC50 [2] [µM]
49 | CC(C)CC(=O)Nc1cc(C2CC2)nn1-c1nc2c(c(=O)[nH]1)CCCC2 | 0.5 µM | 2.5 | 0.13
50 | Clc1ccc(Sc2cnccc2N2CCOCC2)cc1 | 0.13 µM | > 50 | 0.1
51 | O=C(Nc1ccc(S(=O)(=O)N2CCCC2)cc1)c1ccc([N+](=O)[O-])s1 | 0.2 µM | 1.6 | 0.2
52 | N#Cc1cccc(CN2CCC(N(Cc3cccnc3)C(=O)c3cc(F)c(F)cc3F)CC2)c1 | 0.4 µM | > 50 | 0.32
53 | CCCCc1cc(Nc2cc(C3CCC3)[nH]n2)nc(N2CCC2C(N)=O)n1 (stereo not drawn) | 3.2 µM | 0.79 | 1.6
54 | OCCCNc1nc(Nc2ccncc2)nc2ccccc12 | 1.3 µM | > 50 | 0.2
55 | CCC(=O)N1N=C(c2ccc3c(c2)CCCC3)Sc2c1ncn2C(=O)CC | 20 µM | > 50 | 13
56 | Fc1ccc(Nc2nc(-c3ccccn3)cs2)cc1 | 5 µM | 1 | 5
57 | CN(C)c1ccc(-c2cc3nccnc3c(OC[C@H]3CCCNC3)n2)cn1 | > 50 µM (inactive) | 20 | 1.6
58 | CC(C)(C)Nc1nc(-c2ccccn2)nc2ccccc12 | 2 µM | 0.32 | 1.3
59 | CS(=O)(=O)c1ccc(CC(=O)Nc2nc(-c3ccc(Cl)s3)cs2)cc1 | 0.32 µM | 16 | 0.4
60 | CC1CCCCN1C(=O)NCCc1coc(-c2ccc(F)cc2)n1 (stereo not drawn) | 0.32 µM | > 50 | 0.32
61 | CNS(=O)(=O)c1ccccc1Nc1nc(Nc2cc(C)nn2C)ncc1Cl | 0.79 µM | 0.25 | 0.5
62 | O=C1NCCn2ccc(Nc3nc(NC4CCC(O)CC4)ncc3Cl)c21 (stereo not drawn) | 20 µM | 0.4 | 3.2
63 | CC1CN(Cc2ccc(C#N)cc2)CCN1c1ccc(NC(=O)c2ccccc2F)cc1 (stereo not drawn) | > 50 µM (inactive) | > 50 | > 50
64 | CCS(=O)(=O)Nc1ccc(C2=NN(C(=O)c3cccs3)C(c3ccccc3OC)C2)cc1 (stereo not drawn) | > 50 µM (inactive) | > 50 | > 50
65 | O=C(c1cc2cc(Cl)ccc2[nH]1)N1CCCCC1c1cccnc1 (stereo not drawn) | 0.13 µM | 32 | 0.13
66 | Cc1ccc(Nc2nc(C3CCCN3Cc3ccn[nH]3)cs2)nc1 (stereo not drawn) | 2 µM | 10 | 2
67 | N#Cc1cccc(CN2CCC(c3nc(-c4ccc(C(F)(F)F)nc4)no3)CC2)c1 | 2 µM | > 50 | 2.5
68 | Cn1nccc1NC(=O)Cn1ccc(-c2ccncc2)n1 | > 50 µM (inactive) | > 50 | > 50
69 | CN(Cc1cccnc1)Cc1ccc(N2CCN(C(=O)C3(c4ccc(Cl)cc4)CC3)CC2)nc1 | 1.6 µM | > 50 | 1.3
70 | CCc1ccc2nc(NC(=O)c3cc(N4CCOCC4)ccn3)sc2c1 | 0.79 µM | 40 | 0.5
71 | Cc1cc2nc(N3CC[C@H]3C(N)=O)nc(Nc3cc(C4CC4)[nH]n3)c2s1 | 7.9 µM | 0.5 | 4
